Reference: patent publication US8513310B2, “Cosmetic use of phytosphingosine as slimming agent and cosmetic compositions comprising phytosphingosine” (LVMH Recherche, priority 2002, dated 2013)

Assays:
3T3-F442A adipocytes = assay: Leptin secretion by murine 3T3-F442A adipocytes in culture (ELISA on supernatants); assay type: cell-based, mouse; settings: for increase in the secretion of leptin / stimulation of the leptin secretion: D21, versus control; for leptin (pg/mL) Average in culture supernatants: mature 3T3-F442A adipocytes, control 1510
Method: The principle of the test is to control the secretion of leptin by the adipocytes.
Culture of 3T3 F442A Cells
The 3T3 F442A preadipocytes are shown at D0 in 35 mm Petri dishes (Corning) and placed in an oven at 37° C. under an air-CO2 atmosphere (95-5). The cells are cultivated in an Eagle minimum essential medium modified according to Dulbecco (glucose 4.50 g/l) (DMEM-GIBCO BRL) supplemented with 5% of calf serum (CS) (BIOMEDIA®) and 5% of foetal calf serum (GIBCO) during the growth phase. The medium is changed at D2 and D4.
At the cell confluence (at D7), the medium is changed:
The basic medium remains the same (DMEM) but is supplemented with 10% of foetal calf serum (FCS) and insulin (5 μg/mL) (SIGMA).
The medium is then changed at D9 and D11.
At D14, D16 and D18, a treatment is made with the composition the effectiveness of which on the leptin synthesis it is sought to verify.
The leptin secreted is determined by means of a sandwich-type Elisa technique re-running with a Quantikine M Mouse Leptin Immunoassay kit.
This ELISA determination uses recombined mouse leptin, expressed in E. coli and antibodies directed against recombinant mouse leptin.
The test uses a “sandwich” immunoenzymatic technique. The microplate wells are lined with a mouse leptin polyclonal antibody.
The standards, controls and samples are deposited in the wells and, at the same moment, all the leptin present binds to the immobilised antibody.
The bound leptin is then detected by a mouse anti-leptin antibody which is coupled to an enzyme peroxidase. A substrate solution is then added into the wells. The enzymatic reaction leads to a blue solution which turns yellow after addition of a quenching solution.
The intensity of the colour measured is proportional to the amount of leptin present. The reading of the optical density is done at 450 nm on the spectrophotometer.
The determination is obtained afterwards of the dose-response curves in relation to the measurement of natural leptin, parallel to the standard curves obtained with “recombinant” Quantikine M standards. The Quantikine M kit thus enables the relative mass values for the natural mouse leptin to be determined.
The optical density measured at 450 nm is proportional to the amount of antibody fixed, which is itself proportional to the amount of leptin present initially. The results are expressed in pg/mL of leptin present in the cell supernatants.
The samples were tested in triplicate.
Three compositions containing 0.25, 1 and 2 μg/mL, respectively, of phytosphingosine or of its hydrochloride, were tested.

[1] = test system: glycerol-3-phosphate dehydrogenase (G3PDH); assay: G3PDH activity (lipogenesis) in 3T3 F442A preadipocytes treated with media conditioned by treated mature adipocytes; assay type: cell-based, mouse; settings: 8 days, control 0.0016
Text: Thus, the mature adipocytes are firstly treated with PB+PS Secondly, the culture medium which is conditioned with these adipocytes is placed in contact with preadipocytes the maturation of which into adipocytes will be followed. A key enzyme in the process of synthesis of triglycerides is glycerol-3-phosphate dehydrogenase (G3PDH): its specific activity increases considerably during maturation and can thus be used as a precise and sensitive measurement of adipocyte conversion (Pairault J., Green H., Proc. Nat. Acad. Sci. USA, (1979) 76, 5138-42; Koekemoer T. C. et al, Int. J. Biochem. Cell Biol. (1995) 27, 625-32). […] Since G3PDH is a hydrosoluble enzyme, its activity is measured in the supernatant of the cell grindings, in the presence of appropriate substrates (NADH, TEA (triethanolamine)-EDTA, 50 mM, 1 mM). The specific activity is calculated from these determinations. […] Then, the percentage inhibition is calculated of the inhibition of the activity of the G3PDH produced by the substances compared to the controls. […] The consumption of NADH as a function of time is measured by spectrophotometry (KONTRON) at 340 nm. An absorbance variation/minute (Δ Abs/minute) can thus be calculated which corresponds to the initial rate of the enzymatic reaction. […] The total protein content is evaluated by the BCA method (Protein Assay Reagent-PIERCE LTD)

human adipocytes [2] = assay: Release of glycerol by human adipocytes in culture (lipolysis); assay type: cell-based; settings: for glycerol (pg/mL) release: 25 μg/mL
Text: Human adipocytes originating from a plasty of a person, which are marketed by ZEN-BIO (USA), were used at an advanced stage of the adipocyte maturation. The reception of these cells in culture took place 16 days after sowing. […] The properties of Coleus described above for the 3T3F442A murine adipocytes were first of all verified on these human cells: lipolytic activity by measurement of the release of glycerol and non-esterified fatty acids.

human adipocytes [3] = assay: Release of non-esterified fatty acids by human adipocytes in culture; assay type: cell-based; settings: dose of 6 ng/mL
Text: (§1) Human adipocytes originating from a plasty of a person, which are marketed by ZEN-BIO (USA), were used at an advanced stage of the adipocyte maturation. The reception of these cells in culture took place 16 days after sowing. They are cultivated in a specific medium ensuring their differentiation throughout the whole treatment. • D-16: sowing • D0: start of the treatment with the extract of Coleus (PB) and/or phytosphingosine (PS) • D6 to D18: determination of the various parameters. The properties of Coleus described above for the 3T3F442A murine adipocytes were first of all verified on these human cells: lipolytic activity by measurement of the release of glycerol and non-esterified fatty acids.

human adipocytes [4] = assay: Leptin secretion by human adipocytes in culture; assay type: cell-based; settings: most effective doses lower than for murine adipocytes
Text: as §1, with “parameters.” for “parameters. The properties of Coleus described above for the 3T3F442A murine adipocytes were first of all verified on these human cells: lipolytic activity by measurement of the release of glycerol and non-esterified fatty acids.”

[5] = 0.25 μg/mL, day D21 (7 days of treatment)

Compound | increase in the secretion of leptin (3T3-F442A adipocytes; 0.25 μg/mL) | leptin (pg/mL) Average in culture supernatants (3T3-F442A adipocytes; [5]) [pg/mL] | leptin (pg/mL) Average in culture supernatants (3T3-F442A adipocytes; 1 μg/mL, day D21) [pg/mL] | leptin (pg/mL) Average in culture supernatants (3T3-F442A adipocytes; 2 μg/mL, day D21) [pg/mL] | O.D. (nmoles NAD+) average ([1]; PB 0, PS 0.5 μg/mL) [nmoles NAD+] | O.D. (nmoles NAD+) average ([1]; PB 0, PS 1 μg/mL) [nmoles NAD+] | glycerol (pg/mL) release (human adipocytes [2]; day 3, control 73.78) [pg/mL] | glycerol (pg/mL) release (human adipocytes [2]; day 6, control 120.8) [pg/mL] | glycerol (pg/mL) release (human adipocytes [2]; day 9, control 147.2) [pg/mL] | glycerol (pg/mL) release (human adipocytes [2]; day 12, control 198.4) [pg/mL] | glycerol (pg/mL) release (human adipocytes [2]; day 15, control 196.3) [pg/mL] | glycerol (pg/mL) release (human adipocytes [2]; day 18, control 230.9) [pg/mL] | glycerol (pg/mL) release (human adipocytes [2]; day 21, control 276.6) [pg/mL] | glycerol (pg/mL) release (human adipocytes [2]; day 23, control 238.9) [pg/mL] | release of glycerol (human adipocytes [2]; dose of 6 ng/mL) | release of non-esterified fatty acids (human adipocytes [3]) | leptin secretion in human adipocytes (human adipocytes [4]) | stimulation of the leptin secretion (3T3-F442A adipocytes; 1 μg/mL) | stimulation of the leptin secretion (3T3-F442A adipocytes; 2 μg/mL)
CCCCCCCCCCCCCCC(O)C(O)[C@@H](N)CO (stereo in doubt) [phytosphingosine, (2S,3S,4R)-2-amino-1,3,4-octadecanetriol] | more than 18% | 1789 | 1563.6 | 1428.8 | 0.0014 | 0.00165 | 174.4 | 196.2 | 302.9 | 416.4 | 460.6 | 659.8 | 777.1 | 687 | responsible for a release of glycerol with time | without concomitant release of non-esterified fatty acids | induces an increase of leptin secretion |  | 
CCCCCCCCCCCCCC[C@@H](O)[C@@H](O)[C@@H](N)CO.Cl [Phytosphingosine hydrochloride] | +18% | 1789 | 2301.3 | 1907.9 |  |  |  |  |  |  |  |  |  |  |  |  |  | +52% | +26%
